Results taken from PubChem BioAssay AID2077 (NMMLSC, 2009).
Calls of active or inactive are those of the source. The rule behind the calls is not given here.

Target: Bcl-2-like protein 10 (Homo sapiens) (UniProt Q9HD36)
Assay: Bcl-B Bim peptide interaction hit potency – biochemical, dose response, multiplexed HTS hits, confirmation (AID 2077)
Conditions: bead-based flow cytometry, Bim peptide-Bcl-B binding

Sequence of Bcl-2-like protein 10 (Homo sapiens) (Q9HD36 whole entry, looked up): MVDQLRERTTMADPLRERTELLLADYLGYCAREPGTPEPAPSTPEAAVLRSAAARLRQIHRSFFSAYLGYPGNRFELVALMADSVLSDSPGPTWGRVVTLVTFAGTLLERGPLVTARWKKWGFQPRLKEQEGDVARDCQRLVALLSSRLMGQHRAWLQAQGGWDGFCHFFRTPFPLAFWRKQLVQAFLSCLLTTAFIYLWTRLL

EC50	Compound
0.62 µM	COc1ccc(N2C(=O)C(Cl)=C(NC3C(=O)N(c4ccccc4)N(C)C3C)C2=O)cc1 (stereo unspecified)

Same assay, conditions: bead-based flow cytometry, Bim peptide-Bcl-B binding; at 100 µM (top of the series)

response change, negative = inhibition	Compound
inactive	Cc1ccc(-c2cc(C(=O)Nc3nccs3)c3ccccc3n2)o1
inactive	CNC(CC(=O)c1ccc([N+](=O)[O-])cc1)C(Cl)(Cl)Cl (stereo unspecified)
inactive	CC(=O)OCCCNc1cc(Sc2nc3ccccc3s2)c2nonc2c1[N+](=O)[O-]
inactive	CCN(CC)C(=O)COC(=O)c1cc(-c2ccco2)nc2ccccc12
inactive	CNC1CCC(Br)CC(C(=O)/C=C/c2cccc(OC)c2OC)C1=O (stereo unspecified)
inactive	CCN(CC)c1ccc(NC(=O)c2ccccc2F)cc1S(=O)(=O)Nc1ccccc1OC
inactive	O=C1c2ccccc2C(=O)N1CN(C(=O)COc1ccc(Cl)cc1Cl)c1cccc(F)c1
inactive	CCN(CC)c1ccc(NC(=O)COc2ccccc2C)cc1S(=O)(=O)Nc1ccccc1OC
inactive	CCN1C(=O)/C(=C\C=C2/C=CC=CN2CC)SC1=S
inactive	C=CS(=O)(=O)c1sc(Cl)c(N2CCOCC2)c1[N+](=O)[O-]
inactive	CN(CCO)c1cc(Sc2nc3ccccc3s2)c2nonc2c1[N+](=O)[O-]
inactive	Cc1ccc(-c2cc(-c3ccc(F)cc3)c(C#N)c(N)n2)o1
inactive	COc1ccccc1NC1=C(NC(C)=O)C(=O)c2ccccc2C1=O
inactive	Cc1ccc(-c2nc3c(c(=O)[nH]c(=O)n3Cc3ccccc3)n2C)o1
inactive	Cc1ccc(-c2cc(-c3ccc(C)o3)nc(N)c2C#N)cc1
inactive	Oc1ccc(NCc2ccccc2OCc2ccccc2)cc1
inactive	CCOc1ccccc1CNc1ccc(O)cc1
inactive	COc1ccc(CCNC(=O)c2ccc3nc(-c4ccco4)c(-c4ccco4)nc3c2)cc1OC
inactive	O=C(/C=C/c1ccc(-c2ccccc2[N+](=O)[O-])o1)c1ccccc1
inactive	Cc1nnc(Sc2cc(NCCO)c([N+](=O)[O-])c3nonc23)s1
inactive	COc1cc(N=C2SSNC2Cl)c(OC)cc1Cl (stereo unspecified)
inactive	O=C1C(Cl)=C(N2CCN(c3ccccc3[N+](=O)[O-])CC2)C(=O)c2ccccc21
inactive	COc1cc(CNc2ccc3[nH]c(=O)[nH]c3c2)cc(Br)c1OCC(=O)NC(C)(C)C
inactive	Cc1cc2nn(-c3cccc4ccccc34)nc2cc1N
inactive	O=[N+]([O-])c1c(NCCCO)cc(Sc2nc3ccccc3s2)c2nonc12
